{"source": "patent US11337975B2", "about": "“Pharmaceutical combinations comprising a histone deacetylase inhibitor and a CD38 inhibitor and methods of use thereof” (Acetylon Pharmaceuticals, Inc., priority 2016, dated 2022)", "assay_type_in_all_cases": "cell-based", "key": {"[1]": {"system": "RPMI-8226 multiple myeloma cells", "test": "CD38 surface level by FACS, RPMI-8226 cells", "details": "various doses, 48 hours, FACS (FIG. 1A)"}, "[2]": {"system": "MM.1S multiple myeloma cells", "test": "CD38 surface level by FACS, MM.1S cells", "details": "various doses, 48 hours, FACS (FIG. 1B)"}, "[3]": {"system": "H929 multiple myeloma cells", "test": "Anti-CD38 antibody-dependent cell-mediated cytotoxicity (Calcein-AM) in H929 cells", "details": "0.5 μM-2 μM for 24 hours", "procedure": "Multiple myeloma cells were incubated with Calcein-AM (Invitrogen, 2 μg/ml/1 million cells) for 30 min at 37° C. After washing, the cells were used for target cells. Mononuclear cells were obtained from healthy volunteer peripheral blood by Ficoll-Paque density centrifugation and used for effector cells. Both target and effector cells (E/T=15-20) were incubated for 3-4 h and culture supernatant were subjected to measurement of fluorescence using a 490 nm excitation filter and a 520 emission filter. Percent specific lysis was calculated as follows, % specific lysis=[experiment fluorescence−spontaneous fluorescence (no effector)]/[complete lysis (100% killing by detergent)−spontaneous fluorescence (no effector)]×100 Flow Cytometry-Based Ex Vivo ADCC Assay\nCells were stained with Calcein-AM and incubated with peripheral blood mononuclear cells at a ratio of 20:1 for 3 hours."}, "[4]": {"system": "patient-derived multiple myeloma cells", "test": "Ex vivo anti-CD38 ADCC in autologous setting, patients' bone marrow aspirates", "details": "anti-CD38 antibody 0.5 μg/ml with or without Compound B 0.5 μM, 72 hours (FIG. 3A)", "procedure": "After bone marrow aspiration, fresh bone marrow mononuclear cells (MNC) were obtained by ammonium chloride based-lyses of red cells followed by washing in phosphate-buffered saline (PBS). […] The cells were incubated for 72 h at 37° C. in 5% CO2. The viability of primary MM cells in BM MNC was determined by near infrared (n-IR) viability dyes. The surviving CD138+MM cells were enumerated in the presence of Flow-Count Fluorospheres (Beckman Coulter, CA, USA), to determine absolute numbers of viable MM cells. The percentage of daratumumab-mediated ADCC was then calculated using the following formula: % lysis cells=100−[(absolute number of surviving CD138+ cells in the presence of daratumumab/absolute number of surviving CD138+ cells in the presence of control antibody)×100%]. Phenotypic analyses of MNC were performed using a single 5-color combination of monoclonal antibodies containing CD138-PE/CD38-APC/n-IR-viability (BioLegend, San Diego, Calif., USA). Plasma cells in BM MNC were identified by CD138-PE and CD38-APC staining, and expression of CD38 on plasma cells were determined (BD Biosciences, San Jose, Calif., USA). After incubation, cells were washed twice in PBS containing 2% BSA, and then resuspended in PBS for analysis on a Fortessa cytometer (Becton Dickinson, Mountain View, Calif.). […]\nThe average cytotoxicity (mean±SD) was calculated from 6 patients' samples (see also FIG. 3B)."}, "H929 cells": {"system": "H929 cells", "test": "Anti-CD38 ADCC in CFSE-stained H929 cells with PBMCs, flow cytometry", "details": "pomalidomide 0.1 μM, Compound B 0.25, 0.5, 1 μM, 72 h, then anti-CD38 antibody 0.5 μg/ml 3 hours (FIG. 6)", "procedure": "The cells were then incubated with an anti-CD38 antibody (0.5 μg/ml) for 3 hours. Cytotoxicity was assessed by flow cytometry."}}}
{"smiles": "O=C(CCCCCCNC(=O)c1cnc(N(c2ccccc2)c2ccccc2)nc1)NO", "note": "[Compound A, 2-(diphenylamino)-N-(7-(hydroxyamino)-7-oxoheptyl)pyrimidine-5-carboxamide]", "values": [{"measurement": "percentage of CD38 positive cells", "setting": "[1]", "result": "increased"}, {"measurement": "percentage of CD38 positive cells", "setting": "[2]", "result": "increased"}, {"measurement": "Percent specific lysis", "setting": "[3]; PBMC 20:1 for 3 hours (FIG. 2A)", "result": "increased as concentration of Compound A increased"}, {"measurement": "percent augmentation", "setting": "[3]; PBMC 20:1 for 3 hours (FIG. 2B)", "result": "increased as concentration of Compound A increased"}]}
{"smiles": "O=C(CCCCCCNC(=O)c1cnc(N(c2ccccc2)c2ccccc2Cl)nc1)NO", "note": "[Compound B, 2-((2-chlorophenyl)(phenyl)amino)-N-(7-(hydroxyamino)-7-oxoheptyl)pyrimidine-5-carboxamide]", "values": [{"measurement": "percentage of CD38 positive cells", "setting": "[1]", "result": "increased"}, {"measurement": "percentage of CD38 positive cells", "setting": "[2]", "result": "increased"}, {"measurement": "anti-CD38 antibody dependent cell mediated cytotoxicity", "setting": "[4]", "result": "increased"}, {"measurement": "anti-CD38 antibody-induced cytotoxicity (ADCC)", "setting": "H929 cells", "result": "enhanced"}]}
